In ChEMBL document CHEMBL1201862, “PubChem BioAssay data set” (2004):
The source made the active and inactive calls. For most assays here, no stated cut-off is given here; in the data, actives have a measured EC50 and inactives only a lower limit.

Experiments:
[1] = biological target: T1, RNA-binding protein pos-1 (Caenorhabditis elegans, UniProt G5EF15); experiment: disruptors of C. elegans POS-1 RNA interaction – biochemical, fluorescence polarization, dose response (AID 1964);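 further: purified POS-1 fused to maltose binding protein made in E. coli; potency of compounds blocking POS-1 binding to fluorescent RNA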
T1 sequence (G5EF15 whole entry): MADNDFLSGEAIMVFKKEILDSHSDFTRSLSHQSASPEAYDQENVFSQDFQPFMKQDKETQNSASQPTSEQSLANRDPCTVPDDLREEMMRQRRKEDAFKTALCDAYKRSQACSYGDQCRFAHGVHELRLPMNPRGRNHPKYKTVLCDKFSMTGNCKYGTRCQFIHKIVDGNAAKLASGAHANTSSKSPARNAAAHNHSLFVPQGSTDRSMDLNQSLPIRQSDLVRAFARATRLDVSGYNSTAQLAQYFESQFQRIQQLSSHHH

[2] = biological target: T2, Zinc finger protein mex-5 (Caenorhabditis elegans, UniProt Q9XUB2); experiment: potency of MEX-5 RNA-binding blockers – biochemical, C. elegans, fluorescence polarization, dose response (AID 1960)
T2 sequence (Q9XUB2 whole entry): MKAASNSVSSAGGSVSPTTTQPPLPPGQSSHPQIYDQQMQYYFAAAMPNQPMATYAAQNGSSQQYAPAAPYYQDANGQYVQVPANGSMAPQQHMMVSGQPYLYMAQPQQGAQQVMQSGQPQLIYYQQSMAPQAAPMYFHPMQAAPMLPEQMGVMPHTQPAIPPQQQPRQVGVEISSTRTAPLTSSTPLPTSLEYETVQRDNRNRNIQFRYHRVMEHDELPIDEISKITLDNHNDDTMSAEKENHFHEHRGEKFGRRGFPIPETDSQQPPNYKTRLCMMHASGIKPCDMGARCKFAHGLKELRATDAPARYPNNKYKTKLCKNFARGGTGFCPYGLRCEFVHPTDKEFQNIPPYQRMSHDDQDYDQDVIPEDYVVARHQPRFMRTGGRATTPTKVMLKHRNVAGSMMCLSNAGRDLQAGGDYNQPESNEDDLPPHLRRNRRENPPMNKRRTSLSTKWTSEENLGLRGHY

INS1 = experiment: INS-1E survival protection against cytokine death – cell-based, luminescence, retest, dose response (AID 449756); type: functional; settings: Rattus norvegicus;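 further: cell death triggered by IL-1 beta plus TNF-alpha plus IFN-gamma mixture; protective hits raise ATP signal compared with cytokine alone wells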
[3] = P. falciparum Dd2 growth inhibitors, dose response, SYBR Green, cherry-picked samples (AID 1159567); type: functional, cell-based
[4] = biological target: T3, Rac GTPase-activating protein 1 (Homo sapiens, UniProt Q9H0H5); experiment: blockers of MgcRacGAP-driven Rac1 GTP hydrolysis – biochemical, ADP Hunter fluorescence, primary and confirmatory, confirmation (AID 624330); type: functional
T3 sequence (Q9H0H5 whole entry): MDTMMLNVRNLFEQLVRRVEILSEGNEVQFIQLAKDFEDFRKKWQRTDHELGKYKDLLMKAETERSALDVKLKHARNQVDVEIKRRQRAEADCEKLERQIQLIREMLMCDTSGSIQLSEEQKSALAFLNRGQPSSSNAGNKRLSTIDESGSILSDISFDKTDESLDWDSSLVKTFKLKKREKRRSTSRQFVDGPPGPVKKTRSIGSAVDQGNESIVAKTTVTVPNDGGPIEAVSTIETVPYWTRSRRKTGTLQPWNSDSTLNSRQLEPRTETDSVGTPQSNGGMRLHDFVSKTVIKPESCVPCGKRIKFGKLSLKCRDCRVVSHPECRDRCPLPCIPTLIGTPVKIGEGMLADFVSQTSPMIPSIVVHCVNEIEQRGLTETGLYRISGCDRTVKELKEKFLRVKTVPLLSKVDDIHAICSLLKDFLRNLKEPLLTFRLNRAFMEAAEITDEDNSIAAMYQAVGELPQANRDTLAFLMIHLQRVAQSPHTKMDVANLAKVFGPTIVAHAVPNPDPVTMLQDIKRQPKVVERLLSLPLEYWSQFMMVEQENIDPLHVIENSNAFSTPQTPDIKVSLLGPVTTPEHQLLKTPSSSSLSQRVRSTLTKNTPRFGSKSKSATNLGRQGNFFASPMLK

[5] = biological target: T4, Heat shock factor protein 1 (Mus musculus, UniProt P38532); experiment: enhancement of HSF1-driven luciferase signal – cell-based, NIH3T3, luminescence, dose retest, confirmation (AID 435004); type: functional;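 further: stress induced by proteasome inhibitor MG132 added 30 min after compound; luciferase reporter driven by HSF1 response element in NIH3T3 cells; actives raise luminescence as potentiators of the MG132 stress response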
T4 sequence (P38532 whole entry): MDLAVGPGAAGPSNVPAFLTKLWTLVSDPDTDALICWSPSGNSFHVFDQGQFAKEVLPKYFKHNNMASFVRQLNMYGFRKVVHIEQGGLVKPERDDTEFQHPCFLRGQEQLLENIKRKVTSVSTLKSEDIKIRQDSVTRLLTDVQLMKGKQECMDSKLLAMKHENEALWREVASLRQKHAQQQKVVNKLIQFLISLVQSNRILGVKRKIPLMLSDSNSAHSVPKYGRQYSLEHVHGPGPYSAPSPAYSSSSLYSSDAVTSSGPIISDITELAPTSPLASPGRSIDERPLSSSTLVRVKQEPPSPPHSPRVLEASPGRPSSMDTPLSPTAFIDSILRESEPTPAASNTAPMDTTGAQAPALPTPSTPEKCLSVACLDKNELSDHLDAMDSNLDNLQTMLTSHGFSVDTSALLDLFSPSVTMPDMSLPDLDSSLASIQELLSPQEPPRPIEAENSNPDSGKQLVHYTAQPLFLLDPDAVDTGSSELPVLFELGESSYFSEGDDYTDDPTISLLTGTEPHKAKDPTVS

[6] = test system: Streptococcus sp. 'group A'; experiment: Streptococcus pyogenes SK(-)GAS viability under kanamycin – luminescence, BacTiterGlo, confirmation, counter-screen for streptokinase expression inhibitor project, dose response (AID 1900); type: functional, organism-based
Streptokinase A = biological target: T5, Streptokinase A (Streptococcus pyogenes serotype M1, UniProt P10520); experiment: viability-normalized secreted streptokinase activity reduction – plasminogen activation absorbance, OD405, dose response (AID 1914); type: functional, Streptococcus pyogenes M1 GAS;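 further: secreted streptokinase activity via plasminogen activation per viability signal from cell pellet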
T5 sequence (P10520 whole entry): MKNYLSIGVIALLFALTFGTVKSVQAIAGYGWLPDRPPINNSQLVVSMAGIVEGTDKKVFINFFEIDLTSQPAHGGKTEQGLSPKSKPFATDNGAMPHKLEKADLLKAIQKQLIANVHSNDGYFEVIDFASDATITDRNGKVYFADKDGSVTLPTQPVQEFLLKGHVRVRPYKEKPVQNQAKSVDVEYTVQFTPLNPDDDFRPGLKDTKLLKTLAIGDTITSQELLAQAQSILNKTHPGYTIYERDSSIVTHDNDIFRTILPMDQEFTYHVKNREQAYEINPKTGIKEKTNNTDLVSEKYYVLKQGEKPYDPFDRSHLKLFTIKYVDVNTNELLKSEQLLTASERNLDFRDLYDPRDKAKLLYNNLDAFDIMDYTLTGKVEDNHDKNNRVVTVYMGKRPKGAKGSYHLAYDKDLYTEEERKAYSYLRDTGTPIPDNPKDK

Streptococcus = experiment: GAS UMAA2166 growth inhibition – luminescence, BacTiterGlo, counter-screen for streptokinase expression inhibitor project, dose response (AID 1915); type: functional, organism-based;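 further: potency for reduction of bacterial viability or growth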
[7] = biological target: T6, Corticotropin-releasing factor receptor 2/Corticotropin-releasing factor-binding protein (Homo sapiens, UniProt P24387+Q13324); experiment: activators of CRF receptor 2 with binding protein – uHTS hits, confirmation (AID 602473); type: functional; settings: read-out: EC50_Mean
T6 sequence (Q13324 whole entry): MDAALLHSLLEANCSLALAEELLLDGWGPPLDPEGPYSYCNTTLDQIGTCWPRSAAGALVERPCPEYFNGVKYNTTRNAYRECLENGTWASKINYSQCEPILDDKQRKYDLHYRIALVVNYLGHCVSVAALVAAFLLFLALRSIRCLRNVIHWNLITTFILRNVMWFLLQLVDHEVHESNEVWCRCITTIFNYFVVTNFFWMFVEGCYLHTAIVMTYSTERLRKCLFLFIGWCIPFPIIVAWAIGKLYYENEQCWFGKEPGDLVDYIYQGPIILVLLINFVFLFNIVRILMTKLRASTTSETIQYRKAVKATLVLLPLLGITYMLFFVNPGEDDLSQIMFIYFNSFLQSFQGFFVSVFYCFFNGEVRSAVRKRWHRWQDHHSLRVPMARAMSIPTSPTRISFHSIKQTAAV
T6 sequence (P24387 whole entry): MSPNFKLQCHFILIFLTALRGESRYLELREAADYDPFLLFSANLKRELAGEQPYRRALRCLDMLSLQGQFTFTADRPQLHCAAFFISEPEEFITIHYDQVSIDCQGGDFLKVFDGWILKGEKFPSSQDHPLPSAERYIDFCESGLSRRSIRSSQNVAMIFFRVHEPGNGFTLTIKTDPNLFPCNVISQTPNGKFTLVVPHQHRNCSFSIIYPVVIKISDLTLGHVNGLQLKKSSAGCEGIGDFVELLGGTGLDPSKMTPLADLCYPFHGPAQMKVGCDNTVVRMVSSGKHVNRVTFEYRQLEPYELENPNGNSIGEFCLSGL

[8] = Luminescence Cell-Based Dose Retest to Confirm Inhibitors of Cancer Stem Cells. [Related pubchem assays (depositor defined):AID2717, AID2721]; type: functional; settings: Homo sapiens

O=C(NCc1ccccn1)C1Nc2ccc(C(F)(F)F)cc2C2C=CCC12 (stereo unspecified)
EC50 [1]: > 300 µM (not active)
EC50 [2]: > 300 µM (not active)

COc1ccc(C2C(C#N)=C(N)OC3=C2C(=O)CC(C)(C)C3)cc1Cn1cc([N+](=O)[O-])cn1 (stereo unspecified)
EC50 [1]: > 300 µM (not active)
EC50 [2]: > 300 µM (not active)

COc1ccc(-c2ccc3c(c2)S(=O)(=O)c2cccc(C(=O)NCCOc4ccccc4Cl)c2C3=O)cc1OC
AC50 (INS1): 3.41 µM (active)

COc1ccc(C#Cc2ccc3c(c2)[C@H]2[C@H](CCN2C(=O)C2CCC2)[C@@H](CO)N3)cc1
AC50 [3]: 3.22 µM (active)

CCOc1cc(/C=N/NC(=O)CN2CCCCC2)ccc1O
IC50 [4]: 50.4 µM (active)

CC(=N)/C(C#N)=C(/O)CSc1nnc(-c2ccccc2Br)o1
EC50 [5]: > 260 µM (inactive)

CCN(CC)CCN/C=C1/C(=O)NC(=O)N(Cc2ccccc2)C1=O
EC50 [1]: > 300 µM (not active)
EC50 [2]: > 300 µM (not active)

CC(=O)c1ccc(NC(S)=NC(C)c2ccc(Cl)cc2Cl)cc1 (stereo unspecified)
AC50 (INS1): 15.6 µM (active)

COc1cc(CNc2ccc(N3CCN(C(C)=O)CC3)cc2)ccc1OCc1ccccc1
IC50 [4]: 12.8 µM (active)

CCS(=O)(=O)N1CCCCN2[C@H](CO)[C@H](c3ccc(C#Cc4ccccc4OC)cc3)[C@@H]2C1
AC50 [3]: 8.09 µM (active)

Cc1ccc2oc(C(Cl)(Cl)Cl)cc(=O)c2c1
EC50 [5]: 27.9 µM (active)

Cc1ccc(/C=C/C(=O)c2ccc([N+](=O)[O-])o2)cc1
EC50 [6]: 4.07 µM (active)
EC50 (Streptokinase A): 8.82 µM (active)
EC50 (Streptococcus): 14.2 µM (active)
AC50 (INS1): 5.65 µM (active)

O=C(c1cn(CC(=O)N2CCCCC2)c2ccccc12)C1CC1
EC50 [5]: > 260 µM (inactive)

CC(=O)Nc1ccc(/C=C/C(=O)c2ccc3c(c2)OCCO3)cc1
EC50 [1]: > 300 µM (not active)
EC50 [2]: > 300 µM (not active)

COc1ccc2c3c(n(C)c2c1)[C@H](CO)N(C(=O)Nc1ccc(F)cc1)CC31CN(C(=O)NC2CCCC2)C1
AC50 [3]: 5.8 µM (active)

CCOc1ccc(C(=O)NC2CC3CCCC(C2)N3CC(C)C)cc1 (stereo unspecified)
EC50 [5]: > 260 µM (inactive)

COc1ccc(C#Cc2cccc(-c3nc(C(=O)N[C@@H]4CCN(Cc5ccccc5)C4)cc4c3[C@@H](CCO)N([S+]([O-])C(C)(C)C)C4)c2)cc1OC (stereo partly specified)
AC50 [3]: 3.58 µM (active)

O=c1[nH][nH]c2cc(=O)n(-c3ccc(Cl)cc3)nc12
EC50 [1]: 15.4 µM (active)
EC50 [2]: 4.09 µM (active)

C[C@H]1CN([C@@H](C)CO)C(=O)CCCn2nncc2CO[C@@H]1CN(C)C(=O)Nc1ccc(N2CCCCC2)cc1
AC50 [3]: > 39 µM (inactive)

O=C(Nc1nnc(-c2ccccc2)o1)c1cc(Cl)sc1Cl
EC50 [7]: > 53 µM (inactive)

O=C(NCCN1CCOCC1)c1cccn2c(=O)c3c4c(sc3nc12)CCCC4
EC50 [1]: > 300 µM (not active)
EC50 [2]: > 300 µM (not active)

COc1ccc(CNC(=O)c2cc3c(c(-c4cccc(-c5cccc(C#N)c5)c4)n2)[C@H](CCO)N([S@@+]([O-])C(C)(C)C)C3)cc1
AC50 [3]: 3.46 µM (active)

COc1ccc(C2C(C#N)=C(N)OC3=C2C(=O)CC(C)(C)C3)cc1Cn1nc(C)c([N+](=O)[O-])c1C (stereo unspecified)
EC50 [1]: > 300 µM (not active)
EC50 [2]: > 300 µM (not active)

COc1ccc2c(c1)CCc1c(C(=O)N3CC4(C)CC3CC(C)(C)C4)noc1-2 (stereo unspecified)
AC50 [8]: < 0.16 µM (active)
EC50 [5]: > 260 µM (inactive)

CCO/C(O)=C/C(C)=N/c1cc(C)nn1-c1ccccc1
EC50 [5]: > 260 µM (inactive)

COc1cccc(C(=O)N2CCN(C3CCCCC3)CC2)c1
IC50 [4]: 142 µM (active)

Cc1nc(C)c(-c2csc(NCCc3ccccc3)n2)s1
AC50 (INS1): 18 µM (active)

Nc1ccc2nc(N)sc2c1
IC50 [4]: 9.57 µM (active)

CC(C)CCNC1c2ccccc2C(=O)N1Cc1ccccc1 (stereo unspecified)
EC50 [5]: > 260 µM (inactive)

CCCCn1c(N)c(N(CC(C)C)C(=O)Cc2ccc(S(=O)(=O)N3CCOCC3)s2)c(=O)[nH]c1=O
EC50 [7]: 6.11 µM (active)

COc1cc2nc(NC(=O)c3ccc(Cl)cc3)sc(=O)c2cc1OC
EC50 [5]: > 260 µM (inactive)

CN(C)/C=C1/C=C(c2ccccc2)OC1=O
IC50 [4]: 52.1 µM (active)

Cc1cc(C(=O)N2CCN(c3ccccn3)CC2)c(C)o1
EC50 [5]: > 260 µM (inactive)

Cc1ccc(C)c(OCC(O)CN2CCC(C)CC2)c1C (stereo unspecified)
IC50 [4]: 225 µM (active)

O=C(NC(CO)(CO)CO)c1coc(=O)c(Br)c1
EC50 [5]: > 260 µM (inactive)
